From paper PMC10761396, “Evaluation of new alternative methods for the identification of estrogenic, androgenic and steroidogenic effects: a comparative in vitro/in silico study” (Archives of Toxicology, 2023)

Target: T1, ERα (Homo sapiens, UniProt P03372)
T1 sequence (P03372 1-595): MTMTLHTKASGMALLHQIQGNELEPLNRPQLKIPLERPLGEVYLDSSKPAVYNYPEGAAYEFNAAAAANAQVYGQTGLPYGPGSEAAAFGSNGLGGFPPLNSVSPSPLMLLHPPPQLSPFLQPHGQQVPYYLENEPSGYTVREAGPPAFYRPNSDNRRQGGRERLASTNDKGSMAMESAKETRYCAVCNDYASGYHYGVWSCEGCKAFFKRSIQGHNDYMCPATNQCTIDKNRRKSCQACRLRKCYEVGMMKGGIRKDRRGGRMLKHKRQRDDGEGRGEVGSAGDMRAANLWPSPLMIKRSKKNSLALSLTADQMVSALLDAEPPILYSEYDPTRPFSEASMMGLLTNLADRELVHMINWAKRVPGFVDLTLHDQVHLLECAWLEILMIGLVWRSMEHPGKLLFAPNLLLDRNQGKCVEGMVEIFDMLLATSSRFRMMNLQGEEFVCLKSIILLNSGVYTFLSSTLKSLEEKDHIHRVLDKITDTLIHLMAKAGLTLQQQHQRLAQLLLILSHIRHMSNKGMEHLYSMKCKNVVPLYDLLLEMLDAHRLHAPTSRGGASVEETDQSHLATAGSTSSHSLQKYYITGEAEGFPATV
Assay: (anti-)ERα CALUX receptor transactivation assay
Assay type: cell-based
Parameters: expressed in transfected cells; host or cells: CALUX cells (U2-OS is named only for the cytotoxicity CALUX)
Method: The human CALUX® assays were used to measure the impact of test compounds on estrogen and androgen pathways. […] Chemicals can activate (or inactivate, in the case of an antagonistic activity) a ligand-specific pathway by binding to the receptor (ER, AR), after which the receptor-ligand complex binds to specific DNA REs […], resulting in increased (or decreased) cellular expression of a marker protein (e.g., luciferase).
Chemicals were dissolved and diluted in DMSO. […] The cytotoxicity of each test chemical was assessed using the U2-OS based cytotoxicity CALUX bioassay. Concentrations causing >20% reduction of luminescence were considered cytotoxic. […] Luciferase production was quantified by measuring luminescence following addition of luciferin. For antagonist assays, a fixed concentration of receptor agonist was co-incubated with a range of concentrations of the test chemical. […] For the AR assays, dihydrotestosterone was the positive control for agonistic effects and flutamide was the positive control for antagonist effects.
Each test chemical was tested in triplicates in two independent experiments.

Row | Compound | Lowest Effective Concentration (LEC), ER agonism
1 | C[C@]12CCC(=O)C[C@@H]1CC[C@@H]1[C@@H]2CC[C@@]2(C)[C@H]1CC[C@]2(C)O [Mestanolone, mestanolone, reference compound] | 0.028 µM
2 | O=c1c(-c2ccc(O)cc2)coc2cc(O)ccc12 [Daidzein, daidzein] | 0.1 µM
